Measurements published in PubChem BioAssay (NCI).
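Growth conditions: 96-well plates. Treatment: test compound, 48 hours, 5 concentrations. Analysis: linear interpolation between bracketing concentrations; unreached endpoints set to highest concentration. The concentration for 50% growth inhibition is given as GI50. TGI: concentration producing complete growth inhibition.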

How the values were obtained:
Assay in all cases: growth of human tumour cells (NCI), 48 h
T-47D breast = test system: T-47D breast
MDA-MB-231 breast = test system: MDA-MB-231 breast
HS 578T breast = test system: HS 578T breast
BT-549 breast = test system: BT-549 breast
SF-268 CNS = test system: SF-268 CNS
SK-MEL-28 melanoma = test system: SK-MEL-28 melanoma
KM12 colon = test system: KM12 colon
NCI-H522 lung = test system: NCI-H522 lung
SNB-19 CNS = test system: SNB-19 CNS
HCT-116 colon = test system: HCT-116 colon
NCI/ADR-RES ovarian = test system: NCI/ADR-RES ovarian
A549 NSCLC = test system: A549 NSCLC
A498 renal = test system: A498 renal
M14 melanoma = test system: M14 melanoma
SW-620 colon = test system: SW-620 colon
SK-MEL-5 melanoma = test system: SK-MEL-5 melanoma
MCF7 breast = test system: MCF7 breast
NCI-H460 lung = test system: NCI-H460 lung
SN12C renal = test system: SN12C renal
HL-60(TB) leukemia = test system: HL-60(TB) leukemia
HCC-2998 colon = test system: HCC-2998 colon
SR leukemia = test system: SR leukemia
CCRF-CEM leukemia = test system: CCRF-CEM leukemia
SF-295 CNS = test system: SF-295 CNS
HOP-62 NSCLC = test system: HOP-62 NSCLC
CAKI-1 renal = test system: CAKI-1 renal
MDA-MB-435 = test system: MDA-MB-435
UACC-257 melanoma = test system: UACC-257 melanoma
IGROV1 ovarian = test system: IGROV1 ovarian
OVCAR-8 ovarian = test system: OVCAR-8 ovarian
SK-OV-3 ovarian = test system: SK-OV-3 ovarian
MALME-3M melanoma = test system: MALME-3M melanoma
U251 CNS = test system: U251 CNS
HOP-92 NSCLC = test system: HOP-92 NSCLC
RPMI-8226 leukemia = test system: RPMI-8226 leukemia
TK-10 renal = test system: TK-10 renal
HT29 colon = test system: HT29 colon
PC-3 prostate = test system: PC-3 prostate
RXF 393 renal = test system: RXF 393 renal
UO-31 renal = test system: UO-31 renal
OVCAR-5 ovarian = test system: OVCAR-5 ovarian
NCI-H226 lung = test system: NCI-H226 lung
HCT-15 colon = test system: HCT-15 colon
UACC-62 melanoma = test system: UACC-62 melanoma
MOLT-4 leukemia = test system: MOLT-4 leukemia
SK-MEL-2 melanoma = test system: SK-MEL-2 melanoma
SNB-75 CNS = test system: SNB-75 CNS
ACHN renal = test system: ACHN renal
DU-145 prostate = test system: DU-145 prostate
EKVX NSCLC = test system: EKVX NSCLC
COLO 205 colon = test system: COLO 205 colon
LOX IMVI melanoma = test system: LOX IMVI melanoma
786-0 renal = test system: 786-0 renal
OVCAR-4 ovarian = test system: OVCAR-4 ovarian
SF-539 CNS = test system: SF-539 CNS

## CCCCCCNC(=O)Oc1ccc(/C(=C(/C)c2ccc(OC)cc2)c2ccc(OCCN3CCCCCC3)cc2)cc1
T-47D breast
  GI50: 1.39 µM
  TGI: 4.01 µM
MDA-MB-231 breast
  GI50: 1.89 µM
  TGI: 3.76 µM
HS 578T breast
  GI50: 2.75 µM
  TGI: 12.3 µM
BT-549 breast
  GI50: 2.66 µM
  TGI: 7.94 µM
SF-268 CNS
  GI50: 7.36 µM
  TGI: 24 µM
SK-MEL-28 melanoma
  GI50: 1.86 µM
  TGI: 3.73 µM
KM12 colon
  GI50: 10.9 µM
  TGI: 24.2 µM
NCI-H522 lung
  GI50: 4.12 µM
  TGI: 16.2 µM
SNB-19 CNS
  GI50: 7.29 µM
  TGI: 32.1 µM
HCT-116 colon
  GI50: 1.52 µM
  TGI: 2.85 µM
NCI/ADR-RES ovarian
  GI50: 2.91 µM
  TGI: 11.2 µM
A549 NSCLC
  GI50: 3.56 µM
  TGI: 14.4 µM
A498 renal
  GI50: 7.14 µM
  TGI: 20.2 µM
M14 melanoma
  GI50: 1.81 µM
  TGI: 3.56 µM
SW-620 colon
  GI50: 2.01 µM
  TGI: 4.15 µM
SK-MEL-5 melanoma
  GI50: 1.69 µM
  TGI: 3.12 µM
MCF7 breast
  GI50: 0.377 µM
  TGI: 2.58 µM
NCI-H460 lung
  GI50: 1.9 µM
  TGI: 3.52 µM
SN12C renal
  GI50: 1.97 µM
  TGI: 4.77 µM
HL-60(TB) leukemia
  GI50: 0.988 µM
  TGI: 3.47 µM
HCC-2998 colon
  GI50: 2.09 µM
  TGI: 4.71 µM
SR leukemia
  GI50: 1.32 µM
  TGI: 4.6 µM
CCRF-CEM leukemia
  GI50: 2.62 µM
  TGI: > 100 µM
SF-295 CNS
  GI50: 1.76 µM
  TGI: 3.36 µM
HOP-62 NSCLC
  GI50: 6.7 µM
  TGI: 20.7 µM
CAKI-1 renal
  GI50: 3.84 µM
  TGI: 15 µM
MDA-MB-435
  GI50: 2.11 µM
  TGI: 4.71 µM
UACC-257 melanoma
  GI50: 2.1 µM
  TGI: 5.05 µM
IGROV1 ovarian
  GI50: 3.66 µM
  TGI: 13.6 µM
OVCAR-8 ovarian
  GI50: 1.96 µM
  TGI: 3.99 µM
SK-OV-3 ovarian
  GI50: 7.57 µM
  TGI: 21.2 µM
MALME-3M melanoma
  GI50: 1.77 µM
  TGI: 3.44 µM
U251 CNS
  GI50: 1.72 µM
  TGI: 3.33 µM
HOP-92 NSCLC
  GI50: 2 µM
  TGI: 6.96 µM
RPMI-8226 leukemia
  GI50: 2.21 µM
  TGI: 5.47 µM
TK-10 renal
  GI50: 17 µM
  TGI: 31.3 µM
HT29 colon
  GI50: 1.71 µM
  TGI: 4.09 µM
PC-3 prostate
  GI50: 3.05 µM
  TGI: 11.4 µM
RXF 393 renal
  GI50: 1.8 µM
  TGI: 3.85 µM
UO-31 renal
  GI50: 2.14 µM
  TGI: 6.63 µM
OVCAR-5 ovarian
  GI50: 7.03 µM
  TGI: 20.5 µM
NCI-H226 lung
  GI50: 10.3 µM
  TGI: 23.6 µM
HCT-15 colon
  GI50: 1.48 µM
  TGI: 3.15 µM
UACC-62 melanoma
  GI50: 2.21 µM
  TGI: 4.97 µM
MOLT-4 leukemia
  GI50: 2.38 µM
  TGI: 7.45 µM
SK-MEL-2 melanoma
  GI50: 2.09 µM
  TGI: 4.79 µM
SNB-75 CNS
  GI50: 5.79 µM
  TGI: 22.1 µM
ACHN renal
  GI50: 3.17 µM
  TGI: 10.4 µM
DU-145 prostate
  GI50: 8.29 µM
  TGI: 23.4 µM
EKVX NSCLC
  GI50: 5.15 µM
  TGI: 19.2 µM
COLO 205 colon
  GI50: 1.88 µM
  TGI: 3.54 µM
LOX IMVI melanoma
  GI50: 1.45 µM
  TGI: 2.76 µM
786-0 renal
  GI50: 1.68 µM
  TGI: 3.1 µM
OVCAR-4 ovarian
  GI50: 4.6 µM
  TGI: 18.5 µM
SF-539 CNS
  GI50: 1.67 µM
  TGI: 3.1 µM
